The test system of this test is hPSC-NSCs. Description: RT-PCR expression of dopamine neuron genes in hPSC-NSCs treated with small molecule hits. The format is cell-based, human. The conditions noted are these: for fold induction at 2.5 µM: Homo sapiens, Neuron, 336 h. As to the method: The method specifically involved treating both hESC-H9-NSCs (Invitrogen) and hPSC-NSCs with Purmorphamine (2 μM) and FGF8 (100 ng/mL) in NB medium [NeuroBasal medium, 1× GlutaMAX, 1× N2/B27 Supplement (Invitrogen)] for 7 days. After 7 days of Purmorphamine and FGF8 treatment, the NSCs were dissociated with Accutase (Sigma) and plated 20,000 cells/mL into Matrigel coated 96 well plates and treated with small molecule library (Torcris 1120 Biologically Active Compounds) at 2.5 μM final concentration for two weeks (FIG. 6A). Two weeks after treatment with small molecules, all wells were visually observed and scored based on neurite density and dopamine release. For measuring neurite density, cells were fixed with 4% paraformaldehyde and phase contrast images were acquired using Cellavista Cell Imaging System (Roche Applied Science) from randomly selected fields. Neurite density was measured using the Cellavista density software image processing program. Each experimental condition was done in duplicate wells, and at least three independent experiments were conducted to acquire the final results.
Conditioned medium from the top neurite inducers (Table 1) (wells containing the highest density of neurites compare to control 0.1% DMSO treated) were collected and analyzed using a dopamine ELISA assay (Cosmo Bio). Conditioned medium was collected from samples containing 50,000 cells per well and centrifuged at 3000 RPM to remove cell debris. Supernatant was then collected and analyzed for quantitative determination of dopamine using a commercial dopamine ELISA assay kit (CusaCosmo Bio). Data analysis was performed using the microtiter plate reader (BIO-TEK Synergy 2). The results presented are from three independent experiments (n=3) and represented as mean±standard error of mean (s.e.m.) and statistical analysis was performed using the two-tailed Student's t-test with a confidence level of 95% (α=0.05) with statistical significance of P<0.05. Additionally, total RNA from each well were collected and analyze by RT-PCR for expression of TuJ1, MAP2, TH, GRK2, EN1, DAT, AADC, PAX2, NURR1, PITX3 and LMX1B from hPSC-NSCs (Table 2). […] Analysis of the ELISA data indicated the top small molecule neurite inducers produced higher levels of dopamine than control non-treated cells (1.5 ng/mL). […] The percentages of TH positive cells produced by chemical treatment with Kenpaullone (33%), Guggulsterone (35%), Kynurenic Acid (19%), Immedthridine Dihydrobromide (21%), and Dimaprit Dihydrochloride (18%) were higher than 15% of TH positive cells obtained from hPSC-NSCs differentiated for ≥1 month using a standard dopaminergic differentiation medium (BDNF 20 ng/mL, GDNF 20 ng/mL, cAMP 200 μM, Abscorbic Acid 200 μM, TGFβ3 2 ng/mL and DAPT).
Total RNA from at least triplicate samples with around 1 million cells each was isolated using either QIAsymphony automatic purification system or RNeasy Plus Mini kit, according to manufacturer's instructions (Qiagen). Total RNA was used for reverse transcription with the iScript cDNA synthesis kit (Biorad) and Px2 Thermal Cycler (Thermo Scientific). To analyze gene expression, PCR reactions were performed in duplicate using 1/25-th of the cDNA per reaction and the QuantiTect Primer Assay and Quantitest SYBR Green master mix (Qiagen). qPCR was performed using the Rotor-Gene Q (Qiagen) 5 min at 95° C., 5 s at 92° C., and 20 s at 60° C. for 37 cycles followed by melt to check the specificity of the amplicons from 50 to 99° C. raising by 1° C. each step. Relative quantification was performed against a standard curve and quantified values were normalized against the input determined by PPIG. The primers used for the analysis are listed in Supplementary Table S1. […]

[1] abbreviates: hPSC-NSCs primed 7 days with Purmorphamine and FGF8, small molecule 2.5 μM for two weeks.
Where [2] appears, read: hPSC-NSCs primed 7 days with Purmorphamine and FGF8, small molecule 2.5 μM for two weeks, read-out: DDC (AADC) expression by RT-PCR.
[3] abbreviates: hPSC-NSCs primed 7 days with Purmorphamine and FGF8, small molecule 2.5 μM for two weeks, read-out: EN1 expression by RT-PCR.
[4] abbreviates: hPSC-NSCs primed 7 days with Purmorphamine and FGF8, small molecule 2.5 μM for two weeks, read-out: KCNJ6 expression by RT-PCR.
Where [5] appears, read: hPSC-NSCs primed 7 days with Purmorphamine and FGF8, small molecule 2.5 μM for two weeks, read-out: LMX1B expression by RT-PCR.
Setting [6] is: hPSC-NSCs primed 7 days with Purmorphamine and FGF8, small molecule 2.5 μM for two weeks, read-out: MAP2 expression by RT-PCR.
Setting [7] is: hPSC-NSCs primed 7 days with Purmorphamine and FGF8, small molecule 2.5 μM for two weeks, read-out: NR4A2 (NURR1) expression by RT-PCR.
Setting [8] is: hPSC-NSCs primed 7 days with Purmorphamine and FGF8, small molecule 2.5 μM for two weeks, read-out: PITX3 expression by RT-PCR.
Setting [9] is: hPSC-NSCs primed 7 days with Purmorphamine and FGF8, small molecule 2.5 μM for two weeks, read-out: Pax2 expression by RT-PCR.
Setting [10] is: hPSC-NSCs primed 7 days with Purmorphamine and FGF8, small molecule 2.5 μM for two weeks, read-out: SLC6A3 (DAT) expression by RT-PCR.
The mark [11] stands for this setting: hPSC-NSCs primed 7 days with Purmorphamine and FGF8, small molecule 2.5 μM for two weeks, read-out: TH1 expression by RT-PCR.
[12] abbreviates: hPSC-NSCs primed 7 days with Purmorphamine and FGF8, small molecule 2.5 μM for two weeks, read-out: Tubb3 expression by RT-PCR.

Where a name gives a salt, the structure may show the parent alone. Read-outs that look alike come from different tables or passages of the source.

We go through eleven molecules from patent publication US9926529B2, “Derivation of neural stem cells and dopaminergic neurons from human pluripotent stem cells” (International Stem Cell Corporation, priority 2012, dated 2018).

Turning to `N[C@@H](CS(=O)O)C(=O)O` [L-Cysteinesulfinic acid], under setting [1], the “DDC (AADC) expression by RT-PCR” value was determined as 17.27, the “EN1 expression by RT-PCR” value was found to be 5.76, the “KCNJ6 (GRK2) expression by RT-PCR” value is reported as 3.02 and the “LMX1B expression by RT-PCR” value was 2.66. Under setting [1], the “MAP2 expression by RT-PCR” value is 9.52, the “NR4A2 (NURR1) expression by RT-PCR” value was 2.02, the “Pax2 expression by RT-PCR” value was 0.22 and the “SLC6A3 (DAT) expression by RT-PCR” value turned out to be 1.54. Besides, under setting [1], the “TH1 expression by RT-PCR” value is given as 7.84 and the “Tubb3 expression by RT-PCR” value turned out to be 3.41.

For `c1ccc(-c2[nH]ncc2-c2ccnc3ccccc23)nc1` [LY 364947], under setting [1], the “DDC (AADC) expression by RT-PCR” value was 64.48, the “EN1 expression by RT-PCR” value is listed as 7.42, the “KCNJ6 (GRK2) expression by RT-PCR” value stood at 1.09 and the “MAP2 expression by RT-PCR” value is listed as 10.48. In addition, under setting [1], the “NR4A2 (NURR1) expression by RT-PCR” value was 3.01, the “SLC6A3 (DAT) expression by RT-PCR” value came out at 5.08, the “TH1 expression by RT-PCR” value is listed as 5.23 and the “Tubb3 expression by RT-PCR” value was 4.23.

Turning to `O=C1N(c2ccccc2)c2ccccc2C1(Cc1ccncc1)Cc1ccncc1` [Linopirdine dihydrochloride], the fold induction at 2.5 µM under setting [2] was 7.02; the fold induction at 2.5 µM under setting [3] was determined as 4.06; the fold induction at 2.5 µM under setting [4] was 0.16; the fold induction at 2.5 µM under setting [5] turned out to be 2.84; the fold induction at 2.5 µM under setting [6] is 7.02; the fold induction at 2.5 µM under setting [7] was found to be 0.69. Also, the fold induction at 2.5 µM turned out to be 0.26 under setting [8]; 0.3 under setting [9]; 0.28 under setting [10]; 8.61 under setting [11]; 3.74 under setting [12].

With `CC1(C)NC(=O)N(c2ccc([N+](=O)[O-])c(C(F)(F)F)c2)C1=O` [Nilutamide], the fold induction at 2.5 µM is, setting by setting: under setting [2], 172; under setting [3], 5.33; under setting [4], 2.1; under setting [5], 2.55; under setting [6], 10.6; under setting [7], 1.43. Moreover, the fold induction at 2.5 µM amounted to 0.27 under setting [8]; 0.9 under setting [9]; 2.07 under setting [10]; 10.1 under setting [11]; 3.81 under setting [12].

Consider `CCN1CCC[C@H]1CNC(=O)c1c(OC)ccc(Br)c1OC` [Remoxipride hydrochloride], for which the fold induction at 2.5 µM under setting [2] was 13.8; the fold induction at 2.5 µM under setting [3] is 6.6; the fold induction at 2.5 µM under setting [4] came out at 0.93; the fold induction at 2.5 µM under setting [5] stood at 3.16; the fold induction at 2.5 µM under setting [6] is 11.5; the fold induction at 2.5 µM under setting [7] stood at 3.21. For the same molecule, the fold induction at 2.5 µM runs as follows: under setting [8], 0.69; under setting [9], 0.86; under setting [10], 6.41; under setting [11], 12; under setting [12], 5.73.

`CC1=C(/C=C/C(C)=C/C=C/C(C)=C/C(=O)O)C(C)(C)CCC1` [Retinoic acid]: the fold induction at 2.5 µM by setting is: under setting [2], 110; under setting [3], 12.8; under setting [4], 2.8; under setting [5], 1.25; under setting [6], 7.7; under setting [7], 153. Also, the fold induction at 2.5 µM reads like this: under setting [8], 0.04; under setting [9], 0.5; under setting [10], 1.99; under setting [11], 1.99; under setting [12], 7.05.

As for `CCOC(=O)c1ncn2c1CN(C)C(=O)c1cc(N=[N+]=[N-])ccc1-2` [Ro 15-4513], under setting [1], the “DDC (AADC) expression by RT-PCR” value was 12.88, the “EN1 expression by RT-PCR” value amounted to 5.9, the “KCNJ6 (GRK2) expression by RT-PCR” value worked out at 0.09 and the “MAP2 expression by RT-PCR” value stood at 7.19. Moreover, under setting [1], the “NR4A2 (NURR1) expression by RT-PCR” value is reported as 0.9, the “PITX3 expression by RT-PCR” value was 0.72, the “SLC6A3 (DAT) expression by RT-PCR” value is reported as 0.46 and the “TH1 expression by RT-PCR” value stood at 8.49. Besides, under setting [1], the “Tubb3 expression by RT-PCR” value was 4.9.

Take `FC(F)(F)c1cccc(-c2noc(-c3cc(-c4ccccc4)c(C(F)(F)F)s3)n2)c1` [SEW 2871]: the fold induction at 2.5 µM by setting is: under setting [2], 68.3; under setting [3], 8.08; under setting [4], 0.88; under setting [5], 3.65; under setting [6], 12.3; under setting [7], 2.36. In addition, the fold induction at 2.5 µM under setting [9] worked out at 1.59, the fold induction at 2.5 µM under setting [10] worked out at 32.1, the fold induction at 2.5 µM under setting [11] came to 7.6 and the fold induction at 2.5 µM under setting [12] is 5.17.

For `O=C(CCCN1CCC2(CC1)C(=O)NCN2c1ccccc1)c1ccc(F)cc1` [Spiperone hydrochloride], the fold induction at 2.5 µM by setting is: under setting [2], 13.1; under setting [3], 7.4; under setting [4], 0.24; under setting [6], 9.66; under setting [7], 0.58; under setting [8], 0.18. The fold induction at 2.5 µM reads like this: under setting [10], 1.25; under setting [11], 11.1; under setting [12], 3.57.

As for `C/C(=C\c1ccc(C(=O)O)cc1)c1ccc2c(c1)C(C)(C)CCC2(C)C` [TTNPB], under setting [1], the “DDC (AADC) expression by RT-PCR” value was found to be 21.95, the “EN1 expression by RT-PCR” value amounted to 9.42, the “KCNJ6 (GRK2) expression by RT-PCR” value came to 0.69 and the “LMX1B expression by RT-PCR” value was 1.45. Besides, under setting [1], the “MAP2 expression by RT-PCR” value was found to be 6.36, the “NR4A2 (NURR1) expression by RT-PCR” value is on record as 14.8, the “Pax2 expression by RT-PCR” value amounted to 0.09 and the “SLC6A3 (DAT) expression by RT-PCR” value came to 0.5. For the same molecule, under setting [1], the “TH1 expression by RT-PCR” value was determined as 5.5 and the “Tubb3 expression by RT-PCR” value is recorded as 4.64.

Consider `S=C(NC1CCCCC1)N1CCC(c2cnc[nH]2)CC1` [Thioperamide], for which the fold induction at 2.5 µM (read-out: SLC6A3 (DAT) expression by RT-PCR) amounted to 25.5; the fold induction at 2.5 µM under setting [2] was 95.6; the fold induction at 2.5 µM under setting [3] was found to be 7.72; the fold induction at 2.5 µM under setting [4] stood at 2.21; the fold induction at 2.5 µM under setting [5] stood at 3.81; the fold induction at 2.5 µM under setting [6] stood at 13.2. Further, the fold induction at 2.5 µM under setting [7] was found to be 3.43; the fold induction at 2.5 µM under setting [8] worked out at 0.28; the fold induction at 2.5 µM under setting [9] is 1.15; the fold induction at 2.5 µM under setting [11] amounted to 8.38; the fold induction at 2.5 µM under setting [12] was found to be 5.6.
